Target: T1, human SSAO T1 (Gly27-Asn763), untagged (Homo sapiens, UniProt Q16853)
T1 construct: T1 (Gly27-Asn763) Representing the Enzyme Lacking the Membrane Anchoring Region; additional N-terminal Met (N); expressed in transfected cells; cell lysate
T1 sequence (Q16853 27-763): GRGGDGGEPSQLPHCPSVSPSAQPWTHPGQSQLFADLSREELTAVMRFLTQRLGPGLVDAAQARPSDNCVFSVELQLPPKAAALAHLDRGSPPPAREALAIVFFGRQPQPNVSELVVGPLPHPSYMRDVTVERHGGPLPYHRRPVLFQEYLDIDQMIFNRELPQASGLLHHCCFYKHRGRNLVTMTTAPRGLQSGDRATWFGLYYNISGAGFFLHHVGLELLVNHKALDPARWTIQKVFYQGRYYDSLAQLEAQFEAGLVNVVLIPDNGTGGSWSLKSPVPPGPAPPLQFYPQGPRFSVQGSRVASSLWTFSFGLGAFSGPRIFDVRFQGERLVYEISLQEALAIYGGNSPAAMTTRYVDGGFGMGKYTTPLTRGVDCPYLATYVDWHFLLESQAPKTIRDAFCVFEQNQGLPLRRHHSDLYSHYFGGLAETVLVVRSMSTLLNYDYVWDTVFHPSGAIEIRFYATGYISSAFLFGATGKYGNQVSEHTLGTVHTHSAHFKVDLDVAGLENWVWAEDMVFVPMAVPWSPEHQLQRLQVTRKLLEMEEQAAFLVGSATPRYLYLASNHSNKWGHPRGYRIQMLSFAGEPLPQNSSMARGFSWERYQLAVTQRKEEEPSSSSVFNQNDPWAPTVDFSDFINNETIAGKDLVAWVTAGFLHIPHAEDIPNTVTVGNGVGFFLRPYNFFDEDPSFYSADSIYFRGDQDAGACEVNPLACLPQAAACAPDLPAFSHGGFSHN
Experiment: Benzylamine stability in lysate of cells expressing T1 SSAO (untagged), LC/MS/MS
Type: in vitro ADME
Protocol: 3) T1 (Gly27-Asn763) Representing the Enzyme Lacking the Membrane Anchoring Region:
The expression constructs were prepared by cloning these PCR products into the pCDNA5-FRT-To-DEST vector (Invitrogen, Gateway System™). The forward and reverse DNA sequence of each construct was confirmed including expressed sequences and at least 100 base pairs either side of this. Stable cell lines for Flp-In CHO, Flp-In CHO T-Rex, and Flp-In HEK 293 (Invitrogen, Flp-In system™) were generated using these 6 constructs according to manufacturer's instructions. Cells were co-transfected with the regulatory vector, pOG44, and each of the pCDNA5-FRT-To-DEST constructs using Lipfectamine (Invitrogen) according to manufacturer's instructions. Thus, 18 cell lines were generated: CHO Flp-In full-length SSAO; CHO Flp-In full-length SSAO with C-terminal 6×HIS tag; CHO Flp-In T1 SSAO; CHO Flp-In T1 SSAO with C-terminal 6×HIS tag; CHO Flp-In T2 SSAO; CHO Flp-In T2 SSAO with C-terminal 6×HIS tag; CHO T-Rex Flp-In full-length SSAO; CHO T-Rex Flp-In full-length SSAO with C-terminal 6×HIS tag; CHO T-Rex Flp-In T1 SSAO; CHO T-Rex Flp-In T1 SSAO with C-terminal 6×HIS tag; CHO T-Rex Flp-In T2 SSAO; CHO Flp-In T2 SSAO with C-terminal 6×HIS tag; HEK 293 Flp-In full-length SSAO; HEK 293 Flp-In full-length SSAO with C-terminal 6×HIS tag; HEK 293 Flp-In T1 SSAO; HEK 293 Flp-In T1 SSAO with C-terminal 6×HIS tag; HEK 293 Flp-In T2 SSAO; HEK 293 Flp-In T2 SSAO with C-terminal 6×HIS tag.
Adherent CHO cells were cultured at 37° C., 5% CO2 in media containing Ham's F12, 10% fetal bovine serum, 2 mM L-glutamine, 1% Penicillin/Streptomycin, 300 μM hygromycin B. Adherent HEK 293 cells were cultured at 37° C., 5% CO2 in D-MEM (high glucose), 10% fetal bovine serum, 2 mM L-glutamine, and 200 μM hygromycin B. Stable transformants were identified by loss of zeocin resistance. Once the cells were 80% confluent, SSAO expression was induced by the addition of Tetracycline to 1 μg/mL. Following 18 hours, the cells were harvested using a trypsin treatment of 3 minutes, at room temperature. Cells were washed 3 times in phosphate buffered saline before flash freezing in liquid nitrogen.
For the preparation of cell lysate for activity testing, frozen cell pellets were resuspended in lysate buffer containing 10 mM Tris-HCl (pH 7.2), 150 mM NaCl, 1.5 mM MgCl2, 1% v/v NP-40 and incubated for 15 minutes on ice. Lysate was cleared by centrifugation 800×g for 10 minutes, 4° C. and stored in aliquots at −80° C. until use. Proteins were determined using Pierce Coomassie Protein Reagent, according to manufacturer's instructions.
For each assay run, 1 mL of cell lysate (1.5 mg/mL protein) was mixed with benzylamine to 2000 ng/mL final concentration. At each corresponding time point, […] the incubation mixture was transferred to a microcentrifuge tube (1.7 mL) and mixed with 50 μL of acetonitrile. The tubes were vortex mixed briefly to ensure complete mixing and then centrifuged at 10,000×g for 5 minutes. The supernatant was removed and 50 μL was transferred to an autosampler vial and mixed with 50 μL of water before LC/MS/MS analysis. Benzylamine remaining in the lysate was analyzed with LC/MS/MS method.
LC/MS/MS analysis was performed with a PE Sciex API 3000 mass spectrometer under the following conditions listed below and in Tables 1 and 2: […]

NCc1ccccc1 [Benzylamine]
Benzylamine Remaining (%) (CHO Flp-In T-Rex lysate, tag One, 0 min): 100%
Benzylamine Remaining (%) (CHO Flp-In T-Rex lysate, tag One, 10 min): 104%
Benzylamine Remaining (%) (CHO Flp-In T-Rex lysate, tag One, 2 h): 92%
Benzylamine Remaining (%) (CHO Flp-In lysate, tag None, 0 min): 100%
Benzylamine Remaining (%) (CHO Flp-In lysate, tag None, 10 min): 109%
Benzylamine Remaining (%) (CHO Flp-In lysate, tag None, 2 h): 103%
Benzylamine Remaining (%) (HEK293 lysate, tag None, 0 min): 100%
Benzylamine Remaining (%) (HEK293 lysate, tag None, 10 min): 105%
Benzylamine Remaining (%) (HEK293 lysate, tag None, 2 h): 102%

Source: patent publication US8883410B2, “Method for determining the stability of organic methyleneamines in the presence of semicarbazide-sensitive amine oxidase” (Sanofi, priority 2007, dated 2014)
